Laboratory results from a melting point compilation (Tetko et al.; mined from patent text by program, amines drawn as free bases though some values may be those of a salt).

**Q.** For Cc1nc2c(N)nc3c(c2n1CCCCCS(C)(=O)=O)CCCC3, which melting point is on record?
**A.** 172 to 174 °C

**Q.** Which melting point does the source give for COCOc1cc(Cl)ccc1-c1cc(-c2cccc(C(=O)O)c2)c(C#N)c(NC(=O)c2ccco2)n1 here?
**A.** 214 to 216 °C

**Q.** With O=Cc1ccc(-c2ccnc(-c3ccc(OC(F)(F)F)cc3)n2)cc1 as the molecule, how does the melting point read?
**A.** 70 to 73 °C

**Q.** Which melting point does the source give for COc1ccc(Br)c(Sc2nc3c(N)nccc3n2CCCNC(C)C)c1 here?
**A.** 125 to 129 °C

**Q.** For CCOC(=O)N1CCN(c2ccc(Br)cn2)CC1, which melting point is on record?
**A.** 68 °C

**Q.** Which melting point does the source give for COc1cc(Cc2cnc(N)nc2N)cc(Br)c1OC here?
**A.** 204 to 205 °C

**Q.** Which melting point does the source give for COc1ccc2c(ccn2CC(=O)c2ccccc2Br)n1 here?
**A.** 116 to 117 °C

**Q.** Which melting point does the source give for N#CCCn1cnc([N+](=O)[O-])c1 here?
**A.** 112 to 113 °C

**Q.** With COc1ccc2snnc2c1S(=O)(=O)Cl as the molecule, how does the melting point read?
**A.** 131 to 134 °C

**Q.** With O=C1OCCC1Oc1cc(F)ccc1[N+](=O)[O-] (stereo unspecified) as the molecule, how does the melting point read?
**A.** 98 to 100 °C

**Q.** With CC(O)(c1ccc(Cl)cc1)c1cc2ccccc2o1 (stereo unspecified) as the molecule, how does the melting point read?
**A.** 64 to 66 °C

**Q.** With COc1ccc(Nc2nc3ccccc3c3[nH]c(C4CCCC4)nc23)cc1 as the molecule, how does the melting point read?
**A.** 106 to 107 °C

**Q.** For COc1cc2c(cc1Nc1ncc(Cl)c(Nc3ccc(N4CCOCC4)cc3OC)n1)CCOC(=O)N2C, which melting point is on record?
**A.** 242 to 245 °C

**Q.** With CCCCn1nc(C)c(C=O)c1Cc1ccc(-c2ccccc2-c2nnn[nH]2)cc1 as the molecule, how does the melting point read?
**A.** 64 to 70 °C

**Q.** Which melting point does the source give for CC(=O)c1cc(O)c(C)c(C)c1O here?
**A.** 151 °C

**Q.** With COc1cc2c(cc1OC)C(COCCCl)OCCC2 (stereo unspecified) as the molecule, how does the melting point read?
**A.** 90 to 91 °C

**Q.** Which melting point does the source give for Nc1nc2c(s1)CCN(CC=Cc1ccc3[nH]ccc3c1)CC2 here?
**A.** 60 to 65 °C

**Q.** For FC(F)(F)c1cccc(Nc2nccc(-c3cccnc3)n2)c1, which melting point is on record?
**A.** 170 to 171 °C

**Q.** For O=C(CC1CCC2(CC1)OOC1(CCCCCCCCCCC1)OO2)N1CCS(=O)(=O)CC1, which melting point is on record?
**A.** 170 to 172 °C

**Q.** Which melting point does the source give for COC(=O)C(CCSC)N(C(=O)OC(C)(C)C)C(=O)c1ccc(N)c(OC)c1 (stereo unspecified) here?
**A.** 163 to 165 °C

**Q.** With Cc1ccc2c(c1)C(=O)N(C)Cc1c(C#N)ncn1-2 as the molecule, how does the melting point read?
**A.** 252 °C

**Q.** For NC(=O)N(c1ccc(C(F)(F)F)cc1)c1nc(Cl)cc(Cl)n1, which melting point is on record?
**A.** 99 to 101 °C

**Q.** Which melting point does the source give for COc1cc(CN2CCC(=C3c4ccccc4CCn4ccnc43)CC2)cc(OC)c1OCc1ccc2ccccc2n1 here?
**A.** 215 °C

**Q.** For Nc1nn(Cc2ccccc2)c2nc(N3CCOCC3)cc(-c3ccccc3)c12, which melting point is on record?
**A.** 147 to 150 °C

**Q.** For CC(=O)COc1cc(-c2ncc(C(F)(F)F)cc2Cl)ccc1C#N, which melting point is on record?
**A.** 146 to 147 °C

**Q.** With CC[C@H](N)c1nc2c(C(F)(F)F)cccc2c(O)c1C(=O)Nc1nccs1 as the molecule, how does the melting point read?
**A.** 206 °C

**Q.** Which melting point does the source give for COc1ccc(C(=O)Nc2ccc(F)c(F)c2)cc1NCc1cccc(C(=O)O)c1 here?
**A.** 240 to 243 °C

**Q.** Which melting point does the source give for O=C(c1cc2cc([N+](=O)[O-])ccc2[nH]1)N1CCC(Cc2ccccc2)CC1 here?
**A.** 220 to 224 °C

**Q.** For O=C1CC(=O)CC(c2ccc(Cl)cc2Cl)C1, which melting point is on record?
**A.** 192 to 196 °C

**Q.** With O=C1NCCc2ccc(OCCCCN3CCN(c4cccc5c4OCCC5)CC3)nc2N1 as the molecule, how does the melting point read?
**A.** 154 to 156 °C

**Q.** For Cc1nccn1-c1nc(-c2ccc(Cl)cc2)c(CCCOc2ccccc2CCCO)o1, which melting point is on record?
**A.** 119 to 120 °C

**Q.** With CCC(O)c1c(C)nc2ccccc2c1N (stereo unspecified) as the molecule, how does the melting point read?
**A.** 220 to 230 °C

**Q.** Which melting point does the source give for C=C(Cl)COc1cc(C)nc(NCCCCCC)n1 here?
**A.** 36 to 37 °C

**Q.** For O=C(Nc1cc[nH]n1)c1c(F)cccc1F, which melting point is on record?
**A.** 201 to 204 °C

**Q.** For Nc1c2c(=O)[nH]c(C(F)(F)F)nc2nn1-c1ccccc1, which melting point is on record?
**A.** 267 to 269 °C

**Q.** With CCOC(=O)C1=CC(=O)CC(c2ccc(Cl)c(OC)c2F)N1 (stereo unspecified) as the molecule, how does the melting point read?
**A.** 116 to 118 °C

**Q.** For CC(C)(C)OC(=O)N1CCCN(c2ccncc2)CC1, which melting point is on record?
**A.** 124 to 129 °C

**Q.** For COc1cc(N2CCOCC2)ccc1Nc1ncc2cc3ccccc3n2n1, which melting point is on record?
**A.** 169 to 173 °C

**Q.** Which melting point does the source give for Cc1cccc(-c2[nH]c(C(C)C)nc2-c2cccc(-c3ccc(NS(C)(=O)=O)cc3)c2)n1 here?
**A.** 128 to 130 °C

**Q.** Which melting point does the source give for COc1ccc(CC(NC(c2ccccc2)c2ccccc2)P(O)O)cc1 (stereo unspecified) here?
**A.** 199 to 202 °C

**Q.** Which melting point does the source give for CC(C)(C)n1cc(-c2ccc(I)cc2)c2c(N)ncnc21 here?
**A.** 188 to 189 °C

**Q.** For CC(C)[C@@H]1C[C@H](O)[C@H](C2CCCCC2)NC1=O, which melting point is on record?
**A.** 97 to 99 °C

**Q.** With O=C(NS(=O)(=O)NC(=O)OCc1ccccc1)OCc1ccccc1 as the molecule, how does the melting point read?
**A.** 139 to 141 °C

**Q.** With O=C(O)CCc1cnoc1-c1ccc(Cl)c(Cl)c1 as the molecule, how does the melting point read?
**A.** 171 to 172 °C

**Q.** For Cc1cc(Cl)ccc1N1C(=O)c2ccc(Br)cc2C1=O, which melting point is on record?
**A.** 207 to 210 °C

**Q.** Which melting point does the source give for N#Cc1cc2c(cc1F)OCC21C(=O)N(Cc2ccccn2)c2ccccc21 (stereo unspecified) here?
**A.** 108 to 109 °C

**Q.** Which melting point does the source give for CCN(CC)C(=O)c1ccccc1C1CC1c1ccccc1 (stereo unspecified) here?
**A.** 52 to 53 °C

**Q.** For O=C(O)C1=Cc2cc(C(=O)c3ccc(O)cc3)ccc2OC1C(F)(F)F (stereo unspecified), which melting point is on record?
**A.** 234 to 240 °C

**Q.** With O=c1oc2c(c(O)c1C(c1ccccc1)C1CC1)CCCCCC2CC1CCCCO1 (stereo unspecified) as the molecule, how does the melting point read?
**A.** 88 to 93 °C

**Q.** With CC(C)Oc1cccc2c1C(=NNc1ccc(S(N)(=O)=O)cc1)C(=O)N2 as the molecule, how does the melting point read?
**A.** > 250 °C

**Q.** With O=C(O)c1cc(OCc2ccccc2)cc(OCc2ccccc2)c1 as the molecule, how does the melting point read?
**A.** 211 to 213 °C
